In PubChem BioAssay (NCI):
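Cultured in 96-well plates, cells were exposed to test compound for 48 hours across five concentrations. TGI marks complete inhibition of growth.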

What was measured:
Assay in all cases: NCI-60 cell line screen, 48 h
786-0 renal = system: 786-0 renal
A498 renal = system: A498 renal
A549 NSCLC = system: A549 NSCLC
ACHN renal = system: ACHN renal
BT-549 breast = system: BT-549 breast
CAKI-1 renal = system: CAKI-1 renal
CCRF-CEM leukemia = system: CCRF-CEM leukemia
COLO 205 colon = system: COLO 205 colon
DU-145 prostate = system: DU-145 prostate
EKVX NSCLC = system: EKVX NSCLC
HCC-2998 colon = system: HCC-2998 colon
HCT-116 colon = system: HCT-116 colon
HCT-15 colon = system: HCT-15 colon
HOP-62 NSCLC = system: HOP-62 NSCLC
HOP-92 NSCLC = system: HOP-92 NSCLC
HS 578T breast = system: HS 578T breast
HT29 colon = system: HT29 colon
IGROV1 ovarian = system: IGROV1 ovarian
KM12 colon = system: KM12 colon
LOX IMVI melanoma = system: LOX IMVI melanoma
M14 melanoma = system: M14 melanoma
MALME-3M melanoma = system: MALME-3M melanoma
MCF7 breast = system: MCF7 breast
MDA-MB-231 breast = system: MDA-MB-231 breast
MDA-MB-435 = system: MDA-MB-435
MDA-N = system: MDA-N
MOLT-4 leukemia = system: MOLT-4 leukemia
NCI-H226 lung = system: NCI-H226 lung
NCI-H460 lung = system: NCI-H460 lung
NCI-H522 lung = system: NCI-H522 lung
NCI/ADR-RES ovarian = system: NCI/ADR-RES ovarian
OVCAR-3 ovarian = system: OVCAR-3 ovarian
OVCAR-4 ovarian = system: OVCAR-4 ovarian
OVCAR-5 ovarian = system: OVCAR-5 ovarian
OVCAR-8 ovarian = system: OVCAR-8 ovarian
PC-3 prostate = system: PC-3 prostate
RPMI-8226 leukemia = system: RPMI-8226 leukemia
RXF 393 renal = system: RXF 393 renal
SF-268 CNS = system: SF-268 CNS
SF-295 CNS = system: SF-295 CNS
SF-539 CNS = system: SF-539 CNS
SK-MEL-28 melanoma = system: SK-MEL-28 melanoma
SK-OV-3 ovarian = system: SK-OV-3 ovarian
SN12C renal = system: SN12C renal
SNB-19 CNS = system: SNB-19 CNS
SR leukemia = system: SR leukemia
SW-620 colon = system: SW-620 colon
T-47D breast = system: T-47D breast
TK-10 renal = system: TK-10 renal
U251 CNS = system: U251 CNS
UACC-257 melanoma = system: UACC-257 melanoma
UACC-62 melanoma = system: UACC-62 melanoma
UO-31 renal = system: UO-31 renal
K-562 leukemia = system: K-562 leukemia
NCI-H23 lung = system: NCI-H23 lung
SK-MEL-2 melanoma = system: SK-MEL-2 melanoma
SK-MEL-5 melanoma = system: SK-MEL-5 melanoma
SNB-75 CNS = system: SNB-75 CNS

COc1ccc2[nH]c(S(=O)(=O)N3CC(CCl)c4ccc(N)cc43)cc2c1 (stereo not given)
TGI (786-0 renal): 14.7 µM
TGI (A498 renal): 17.6 µM
TGI (A549 NSCLC): 36 µM
TGI (ACHN renal): 49.5 µM
TGI (BT-549 breast): 27.6 µM
TGI (CAKI-1 renal): 19.9 µM
TGI (CCRF-CEM leukemia): > 50.7 µM
TGI (COLO 205 colon): 53.3 µM
TGI (DU-145 prostate): > 37.4 µM
TGI (EKVX NSCLC): 52.6 µM
TGI (HCC-2998 colon): 14.9 µM
TGI (HCT-116 colon): > 31.8 µM
TGI (HCT-15 colon): 26.4 µM
TGI (HOP-62 NSCLC): 28.6 µM
TGI (HOP-92 NSCLC): 63.4 µM
TGI (HS 578T breast): 16.5 µM
TGI (HT29 colon): 4.69 µM
TGI (IGROV1 ovarian): 24.2 µM
TGI (KM12 colon): 3.86 µM
TGI (LOX IMVI melanoma): 17.7 µM
TGI (M14 melanoma): 16.6 µM
TGI (MALME-3M melanoma): 27.6 µM
TGI (MCF7 breast): > 100 µM
TGI (MDA-MB-231 breast): 26.9 µM
TGI (MDA-MB-435): 3.35 µM
TGI (MDA-N): < 0.0189 µM
TGI (MOLT-4 leukemia): 18.4 µM
TGI (NCI-H226 lung): 20.1 µM
TGI (NCI-H460 lung): 14.2 µM
TGI (NCI-H522 lung): 10.1 µM
TGI (NCI/ADR-RES ovarian): 18.6 µM
TGI (OVCAR-3 ovarian): 25.8 µM
TGI (OVCAR-4 ovarian): 35.3 µM
TGI (OVCAR-5 ovarian): 35.2 µM
TGI (OVCAR-8 ovarian): 19.4 µM
TGI (PC-3 prostate): 16.6 µM
TGI (RPMI-8226 leukemia): 22 µM
TGI (RXF 393 renal): 29.4 µM
TGI (SF-268 CNS): 14.1 µM
TGI (SF-295 CNS): 2.27 µM
TGI (SF-539 CNS): 12.7 µM
TGI (SK-MEL-28 melanoma): 68.2 µM
TGI (SK-OV-3 ovarian): 38.3 µM
TGI (SN12C renal): 16.5 µM
TGI (SNB-19 CNS): > 100 µM
TGI (SR leukemia): 16.9 µM
TGI (SW-620 colon): > 100 µM
TGI (T-47D breast): > 100 µM
TGI (TK-10 renal): > 82.3 µM
TGI (U251 CNS): > 70.5 µM
TGI (UACC-257 melanoma): 67.5 µM
TGI (UACC-62 melanoma): 25.4 µM
TGI (UO-31 renal): 4 µM

CN(Cc1cnc2c(n1)C(N)=NN(N)N2)c1ccc(C(=O)NC(CCP(=O)(O)O)C(=O)O)cc1 (stereo not given)
TGI (A498 renal): > 100 µM
TGI (A549 NSCLC): > 100 µM
TGI (ACHN renal): > 100 µM
TGI (BT-549 breast): > 89.6 µM
TGI (CAKI-1 renal): > 100 µM
TGI (CCRF-CEM leukemia): > 100 µM
TGI (COLO 205 colon): > 100 µM
TGI (DU-145 prostate): > 100 µM
TGI (EKVX NSCLC): > 100 µM
TGI (HCC-2998 colon): > 100 µM
TGI (HCT-15 colon): > 100 µM
TGI (HOP-62 NSCLC): > 100 µM
TGI (HOP-92 NSCLC): > 100 µM
TGI (HS 578T breast): > 100 µM
TGI (HT29 colon): > 38.8 µM
TGI (IGROV1 ovarian): > 100 µM
TGI (K-562 leukemia): > 100 µM
TGI (KM12 colon): > 100 µM
TGI (LOX IMVI melanoma): > 100 µM
TGI (M14 melanoma): > 100 µM
TGI (MALME-3M melanoma): > 100 µM
TGI (MCF7 breast): > 100 µM
TGI (MDA-MB-231 breast): > 100 µM
TGI (MDA-MB-435): > 100 µM
TGI (MDA-N): > 100 µM
TGI (MOLT-4 leukemia): > 100 µM
TGI (NCI-H226 lung): > 54 µM
TGI (NCI-H23 lung): > 100 µM
TGI (NCI-H460 lung): > 100 µM
TGI (NCI-H522 lung): > 100 µM
TGI (NCI/ADR-RES ovarian): > 55.8 µM
TGI (OVCAR-3 ovarian): > 100 µM
TGI (OVCAR-4 ovarian): > 100 µM
TGI (OVCAR-8 ovarian): > 58.3 µM
TGI (PC-3 prostate): > 100 µM
TGI (RPMI-8226 leukemia): > 100 µM
TGI (RXF 393 renal): 71.8 µM
TGI (SF-268 CNS): > 100 µM
TGI (SF-295 CNS): > 100 µM
TGI (SF-539 CNS): > 100 µM
TGI (SK-MEL-2 melanoma): > 100 µM
TGI (SK-MEL-28 melanoma): > 100 µM
TGI (SK-MEL-5 melanoma): > 100 µM
TGI (SK-OV-3 ovarian): > 100 µM
TGI (SN12C renal): > 100 µM
TGI (SNB-19 CNS): > 100 µM
TGI (SNB-75 CNS): > 100 µM
TGI (SR leukemia): > 100 µM
TGI (SW-620 colon): > 100 µM
TGI (T-47D breast): > 100 µM
TGI (TK-10 renal): > 100 µM
TGI (U251 CNS): > 100 µM
TGI (UACC-257 melanoma): > 100 µM
TGI (UACC-62 melanoma): > 100 µM
TGI (UO-31 renal): > 100 µM

Oc1ccc2ccccc2c1CN(Cc1c(O)ccc2ccccc12)C1CCCCC1
TGI (786-0 renal): 30.7 µM
TGI (A498 renal): 71.6 µM
TGI (A549 NSCLC): 44.4 µM
TGI (ACHN renal): 34.7 µM
TGI (BT-549 breast): 42.7 µM
TGI (CAKI-1 renal): 33.6 µM
TGI (CCRF-CEM leukemia): > 100 µM
TGI (COLO 205 colon): 29.6 µM
TGI (DU-145 prostate): 42.8 µM
TGI (EKVX NSCLC): 29.7 µM
TGI (HCC-2998 colon): 27.7 µM
TGI (HCT-116 colon): 29.3 µM
TGI (HCT-15 colon): 45.4 µM
TGI (HOP-62 NSCLC): > 100 µM
TGI (HOP-92 NSCLC): 37.1 µM
TGI (HS 578T breast): 79 µM
TGI (HT29 colon): 39.6 µM
TGI (IGROV1 ovarian): 27.6 µM
TGI (K-562 leukemia): 53.5 µM
TGI (KM12 colon): > 100 µM
TGI (LOX IMVI melanoma): 28.2 µM
TGI (M14 melanoma): 31.3 µM
TGI (MALME-3M melanoma): 29.2 µM
TGI (MCF7 breast): 29.3 µM
TGI (MDA-MB-231 breast): 44.1 µM
TGI (MDA-MB-435): 43.6 µM
TGI (MDA-N): 28.7 µM
TGI (MOLT-4 leukemia): 41.4 µM
TGI (NCI-H23 lung): 31.5 µM
TGI (NCI-H460 lung): 51 µM
TGI (NCI-H522 lung): 27.1 µM
TGI (NCI/ADR-RES ovarian): 54.9 µM
TGI (OVCAR-3 ovarian): 41.7 µM
TGI (OVCAR-4 ovarian): 47.1 µM
TGI (OVCAR-5 ovarian): > 100 µM
TGI (OVCAR-8 ovarian): 44.6 µM
TGI (PC-3 prostate): 38.2 µM
TGI (RPMI-8226 leukemia): 97.2 µM
TGI (RXF 393 renal): 46.7 µM
TGI (SF-268 CNS): 27 µM
TGI (SF-295 CNS): > 100 µM
TGI (SF-539 CNS): 29.4 µM
TGI (SK-MEL-2 melanoma): 67.1 µM
TGI (SK-MEL-28 melanoma): 51.9 µM
TGI (SK-MEL-5 melanoma): 28.1 µM
TGI (SK-OV-3 ovarian): > 100 µM
TGI (SN12C renal): 28 µM
TGI (SNB-19 CNS): 90.2 µM
TGI (SNB-75 CNS): 50.5 µM
TGI (SR leukemia): 83.9 µM
TGI (SW-620 colon): 48.9 µM
TGI (T-47D breast): > 100 µM
TGI (TK-10 renal): 36.9 µM
TGI (U251 CNS): 45.2 µM
TGI (UACC-257 melanoma): 28.7 µM
TGI (UACC-62 melanoma): 32.9 µM
TGI (UO-31 renal): 38.1 µM
